Measured values from patent US11203582B2, “Benzamide derivatives for inhibiting endoplasmic reticulum (ER) stress” (The Board of Regents of the University of Oklahoma, priority 2017, dated 2021).

Key:
[1] = test system: INS-1 cells; assay: Glucose-stimulated insulin secretion (ELISA) in Tm-treated INS-1 cells; type: cell-based, rat; details: Tm 0.1 μg/mL, 24 h, 20 mM glucose
Procedure: (A-D) INS-1 cells were treated with or without Tm (0.1 m/mL) in the presence of 13d at indicated concentrations or DMSO for 24 h. The mRNA levels of INS1 (A), INS2 (B), PDX1 (C), and MafA (D), were analyzed by qRT-PCR. Relative mRNA levels were normalized against the housekeeping gene Cyclophilin A using the comparative CT method. The results are the means of 3 replicate wells and are representative of 3 independent experiments. * P<0.05 and ** P<0.01 compared with Tm treatment alone. Bars indicate SD. (E) Insulin secretion by INS-1 cells incubated with 1.7 mM and 20 mM glucose in the presence or absence of Tm (0.1 μg/mL) and 13d. Secreted insulin was measured by ELISA after 24 h treatment. * P<0.05. The amount of insulin secreted in response to 1.7 mM glucose in the absence of Tm was set to 1.0 and was normalized with total protein concentration.
INS-1 or primary human islet cells were plated in 96-well plates. The second day, Tm and test compound were added and maintained for 24 h (INS-1) or 48 h (human islets). […] The secreted insulin was measured with insulin ELISA kits (for mouse insulin from Millipore and for human insulin from LifeTech). Cells were lysed with RIPA buffer (50 mM Tris HCl pH 7.4, 1% NP-40, 0.25% sodium deoxycholate, 150 mM NaCl), and total cellular protein was determined with a Bradford protein assay. […]

[2] = test system: INS-1 cells; assay: MTT cell viability assay, INS-1 cells treated with Tm; type: cell-based, rat; details: Tm 0.1 μg/mL, 72 h, FIG. 2B
Source text: (§1) The measurement of intracellular ATP level was use as a surrogate assay for cell viability. […] To confirm the authenticity of 13d's protective effect on β-cell viability (not simply an increase in ATP-specific measurement), we used the MTT assay, which measures the activity of NAD(P)H-dependent cellular oxidoreductase enzymes, as an orthogonal method to measure cell viability. […] To determine whether the protective effect of 13d on β-cells is specific to INS-1 cells, another β-cell line, βTC6, was used. […] In addition, compound 13d on its own had no effect on β-cell viability in both cell lines (FIG. 2C-D).
INS-1 cells or βTC6 cells were seeded at 3×10^3 cells/well in a 384-well plate and treated with compounds at the indicated concentrations. After 3 d treatment, the medium was aspirated and 10 μl of MTT reagent (Cayman Chemical, MI, USA, prepared according to manufacturer's instruction) to each well was added and mixed gently for one minute on an orbital shaker. The cells were then incubated for three hours at 37° C. in a CO2 incubator. After incubation, add 100 μl of crystal dissolving solution to each well, and incubate for 4 hours in a 37° C. CO2 incubator. Viability will be measured for the absorbance to each sample at 570 nm using EnVision multilabel plate reader (PerkinElmer, MA, USA).

[3] = test system: βTC6 cells; assay: Cell survival assay, intracellular ATP, βTC6 cells treated with Tm; type: cell-based; details: 72 h, FIG. 2C
Source text: as §1, with “2C-D). […]” for “2C-D).”
INS-1 cells or βTC6 cells were seeded at 3×10^3 cells/well in a 384-well plate and treated with compounds at the indicated concentrations. […] Cell viability was measured with an EnVision multilabel plate reader (PerkinElmer, MA, USA).

Compound: O=C(NCc1ccc(C(F)(F)F)cc1)c1cccc(CN2CCCCC2)c1 [Compound 13d, N-(4-trifluoromethylphenmethyl)-3-(N-piperidinyl)methyl benzamide]
- glucose-stimulated insulin secretion (GSIS) in Tm-treated cells [1]: significantly rescued
- viability of INS-1 cells under Tm treatment (MTT) [2]: restored the viability of INS-1 cells
- viability of βTC6 cells under Tm treatment (intracellular ATP) ([3]; Tm 0.3 μg/mL): rescued the viability of βTC6 cells in a dose-dependent manner
- effect of compound on its own on β-cell viability ([3]; βTC6 cells, no Tm): no effect
